Patent publication US20240245711A1, “A 19-NOR C3,3-DISUBSTITUTED C21-N-PYRAZOLYL STEROID FOR THE TREATMENT OF MAJOR DEPRESSIVE DISORDER” (Sage Therapeutics, Inc., priority 2021, published 2024)
Entries after “also recorded” stand apart in the source; their conditions may differ.

Tested on: adult subjects with Major Depressive Disorder
Experiment: Phase 3 open-label 1-year study: safety and tolerability (TEAEs, SAEs, C-SSRS)
Assay type: in vivo, human
Method: Primary Objective: To determine the safety and tolerability of initial treatment and re-treatment(s) with Compound (1) in adults with Major Depressive Disorder (MDD) currently experiencing a major depressive episode (MDE) over a 1-year period.
Study Population: Subjects were 18-75 years old, diagnosed with major depressive disorder (MDD) with a MADRS total score of ≥28 and a HAM-D total score of ≥20 at Screening and Day 1 (prior to dosing).
Treatment Groups: The 30 mg and 50 mg dose groups were separated by time of enrollment. The study is comprised of two cohorts: one with Compound (1) 30 mg as a starting dose (30 mg Cohort: n=725), an initial cohort with Compound (1) 50 mg as a starting dose (50 mg Cohort: n=199). A patient receiving Compound (1) 30 mg could be dose reduced to 20 mg and patients receiving Compound (1) 50 mg could be dose reduced to 40 mg (based on tolerability). In all cohorts, Compound (1) is self-administered by patients as an oral therapy once nightly with food for 14 days.
The study has a Screening Period of up to 28 days, a 14-day Treatment Period, and up to 1 year of Follow-up. FIG. 1 is an overview of the study.
Antidepressants were permitted provided subjects were on a stable dose for at least 60 days prior to Day 1 and agreed to continue on the stable dose through the follow-up period (Day 42). Initiation of new antidepressants or any other medications that may potentially have an impact on efficacy or safety endpoints were not allowed between screening and completion of the Day 42 assessments.
Eligible subjects were given Compound (1)—to be taken at home in the evening with meal.
Subjects who continued in the Observation Period were monitored remotely via PHQ-9 assessment every two weeks. If PHQ-9 score was >=10 at any assessment, PHQ-9 assessment was switch to every week until the score came down below 10 or the subject was dosed with Compound (1) in a subsequent cycle, whichever was earlier. A subject was to come back to the site for HAM-D assessment within a week of PHQ-9 score >=10; if the HAM-D total score >=20 and at least 56 days had elapsed since the last dose of Compound (1), another dosing cycle of Compound (1) were to start. If any of these criteria were not met, the subject couldn't be treated with Compound (1) at that time. Without the trigger of PHQ-9>=10 the subject was to have a clinic visit every 8 weeks. A subject could have at most 5 cycles of treatment within a year. FIG. 2 is a depiction of the eligibility criteria of the study.
Dose reduction from 30 mg to 20 mg or 50 mg to 40 mg was allowed in any treatment cycle if the safety and/or tolerability of the subject so warrants. […] Subjects who dose reduced from 30 mg to 20 mg still started with 30 mg in the next treatment cycle.
The cohorts pertaining to the different doses that the subjects received were defined as following: • 50 mg cohort: This cohort includes subjects who have initiated treatment with 50 mg and received re-treatment with 50 mg only. • 30 mg cohort: This cohort includes subjects who have initiated treatment with 30 mg regardless of the dose they have received in re-treatments. • Low dose cohort: This cohort includes subjects who have initiated treatment with 30 mg and received re-treatment with 30 mg only. • Dose switch cohort: This cohort includes subjects who have received initial treatment with 30 mg and at least one subsequent re-treatment with 50 mg. • Study Period X: starts on the date of the first dose of Compound (1) in cycle X and goes up to one day prior to the first dose of the next cycle. […]

[1] = 50 mg Cohort, one-year follow-up (Example 4)
[2] = Low Dose Cohort, ATD use at period-specific baseline No, Study Period 1
[3] = Low Dose Cohort, ATD use at period-specific baseline No, Study Period 2

What does the source list for `C[C@@]1(O)CC[C@H]2[C@H](CC[C@@H]3[C@@H]2CC[C@]2(C)[C@@H](C(=O)Cn4cc(C#N)cn4)CC[C@@H]32)C1` [Compound (1), 1-(2-((3R,5R,8R,9R,10S,13S,14S,17S)-3-hydroxy-3,13-dimethylhexadecahydro-1H-cyclopenta[a]phenanthren-17-yl)-2-oxoethyl)-1H-pyrazole-4-carbonitrile]?
Subjects with at least one TEAE leading to study drug discontinuation (30 mg Cohort (N = 725)): 19 (2.6%); Subjects with at least one TEAE leading to study withdrawal (30 mg Cohort (N = 725)): 32 (4.4%); Subjects with at least one serious TEAE (30 mg Cohort (N = 725)): 20 (2.8%); TEAE severity Mild, subjects n (%) (30 mg Cohort (N = 725)): 200 (27.6%); TEAE severity Moderate, subjects n (%) (30 mg Cohort (N = 725)): 248 (34.2%); TEAE severity Severe / subjects with at least one severe TEAE, n (%) (30 mg Cohort (N = 725)): 45 (6.2%); Events of loss of consciousness (30 mg and 50 mg, as of the cutoff date): No events of loss of consciousness; Possibly or probably related SAEs (50 mg Cohort): Confusional state; also recorded: Asthenia; also recorded: Delirium; Subjects with at least one serious TEAE (50 mg Cohort (N = 199)): 7 (3.5%); TEAE Arthralgia, subjects n (%) (50 mg Cohort (N = 199)): 1 (0.5%); TEAE Back Pain, subjects n (%) (50 mg Cohort (N = 199)): 0%; TEAE Diarrhea, subjects n (%) (50 mg Cohort (N = 199)): 4 (2.0%); TEAE Dizziness, subjects n (%) (50 mg Cohort (N = 199)): 30 (15.1%); TEAE Dry Mouth, subjects n (%) (50 mg Cohort (N = 199)): 7 (3.5%); TEAE Fatigue, subjects n (%) (50 mg Cohort (N = 199)): 5 (2.5%); TEAE Headache, subjects n (%) (50 mg Cohort (N = 199)): 20 (10.1%); TEAE Insomnia, subjects n (%) (50 mg Cohort (N = 199)): 10 (5.0%); TEAE Nausea, subjects n (%) (50 mg Cohort (N = 199)): 11 (5.5%); TEAE Sedation, subjects n (%) (50 mg Cohort (N = 199)): 18 (9.0%); TEAE Somnolence, subjects n (%) (50 mg Cohort (N = 199)): 29 (14.6%); TEAE Upper Respiratory Tract Infection, subjects n (%) (50 mg Cohort (N = 199)): 1 (0.5%); TEAE severity Mild, subjects n (%) (50 mg Cohort (N = 199)): 45 (22.6%); TEAE severity Moderate, subjects n (%) (50 mg Cohort (N = 199)): 65 (32.7%); TEAE severity Severe / subjects with at least one severe TEAE, n (%) (50 mg Cohort (N = 199)): 15 (7.5%); Withdrawn in Treatment Cycle 1: Adverse event, n (%) (50 mg Cohort (n = 199)): 11 (5.5%); Maximum severity of TEAEs reported by the majority of subjects [1]: mild to moderate; TEAE Dizziness, subjects n (%) [1]: 15.1%; TEAE Headache, subjects n (%) [1]: 12.7%; TEAE Insomnia, subjects n (%) [1]: 7.0%; TEAE Nausea, subjects n (%) [1]: 6.5%; TEAE Sedation, subjects n (%) [1]: 10.1%; TEAE Somnolence, subjects n (%) [1]: 16.1%; TEAE tremor, subjects (n; %) [1]: 5.5%; Subjects reporting TEAEs leading to discontinuation of study drug (50 mg Cohort, one-year follow-up (Example 4), 13/199): 6.5%; Subjects reporting TEAEs leading to withdrawal from study (50 mg Cohort, one-year follow-up (Example 4), 16/199): 8.0%; Subjects reporting at least one adverse event (50 mg Cohort, one-year follow-up (Example 4), 137 of 199): 68.8%; Subjects reporting TEAEs leading to dose reduction, n/N (50 mg cohort, Cycle 2): 2/26; Proportion of subjects reporting TEAEs (50 mg cohort, as printed in b423 (46/76)): 60.5%; Subjects reporting TEAEs leading to dose reduction (50 mg cohort, overall (34/199)): 17.1%; Tolerability (Compound (1) 50 mg, 50 mg Cohort followed up to one year (Example 4)): generally well-tolerated; Subjects with at least one serious TEAE (Dose Switch Cohort (N = 80)): 1 (1.3%); TEAE Arthralgia, subjects n (%) (Dose Switch Cohort (N = 80)): 5 (6.3%); TEAE Back Pain, subjects n (%) (Dose Switch Cohort (N = 80)): 5 (6.3%); TEAE Diarrhea, subjects n (%) (Dose Switch Cohort (N = 80)): 11 (13.8%); TEAE Dizziness, subjects n (%) (Dose Switch Cohort (N = 80)): 7 (8.8%); TEAE Dry Mouth, subjects n (%) (Dose Switch Cohort (N = 80)): 3 (3.8%); TEAE Fatigue, subjects n (%) (Dose Switch Cohort (N = 80)): 8 (10.0%); TEAE Headache, subjects n (%) (Dose Switch Cohort (N = 80)): 13 (16.3%); TEAE Insomnia, subjects n (%) (Dose Switch Cohort (N = 80)): 5 (6.3%); TEAE Nausea, subjects n (%) (Dose Switch Cohort (N = 80)): 3 (3.8%); TEAE Sedation, subjects n (%) (Dose Switch Cohort (N = 80)): 11 (13.8%); TEAE Somnolence, subjects n (%) (Dose Switch Cohort (N = 80)): 10 (12.5%); TEAE Upper Respiratory Tract Infection, subjects n (%) (Dose Switch Cohort (N = 80)): 5 (6.3%); TEAE severity Mild, subjects n (%) (Dose Switch Cohort (N = 80)): 13 (16.3%); TEAE severity Moderate, subjects n (%) (Dose Switch Cohort (N = 80)): 36 (45.0%); TEAE severity Severe / subjects with at least one severe TEAE, n (%) (Dose Switch Cohort (N = 80)): 8 (10.0%); Proportion of subjects reporting TEAEs (Dose Switch cohort, as printed in b423 (37/48)): 77.1%; Subjects reporting TEAEs leading to dose reduction (Dose switch cohort, Cycle 1 while on 30 mg): 2.5%; Subjects reporting TEAEs leading to dose reduction (Dose switch cohort, Cycle 2 while on 30 mg): 2.5%; Subjects reporting TEAEs leading to dose reduction (Dose switch cohort, Cycle 3 while switched to 50 mg): 4.2%; Subjects reporting TEAEs leading to dose reduction (Dose switch cohort, Cycle 4 while switched to 50 mg): 3.8%; Subjects reporting TEAEs leading to dose reduction (Dose switch cohort, Cycle 5 while switched to 50 mg): 17.4%; Subjects reporting TEAEs leading to dose reduction (Dose switch cohort, overall (12/80)): 15.0%; Possibly or probably related SAEs (Low Dose Cohort): Suicidal ideation; Subjects with at least one serious TEAE (Low Dose Cohort (N = 645)): 19 (2.9%); TEAE Arthralgia, subjects n (%) (Low Dose Cohort (N = 645)): 14 (2.2%); TEAE Back Pain, subjects n (%) (Low Dose Cohort (N = 645)): 18 (2.8%); TEAE Diarrhea, subjects n (%) (Low Dose Cohort (N = 645)): 43 (6.7%); TEAE Dizziness, subjects n (%) (Low Dose Cohort (N = 645)): 47 (7.3%); TEAE Dry Mouth, subjects n (%) (Low Dose Cohort (N = 645)): 40 (6.2%); TEAE Fatigue, subjects n (%) (Low Dose Cohort (N = 645)): 27 (4.2%); TEAE Headache, subjects n (%) (Low Dose Cohort (N = 645)): 90 (14.0%); TEAE Insomnia, subjects n (%) (Low Dose Cohort (N = 645)): 31 (4.8%); TEAE Nausea, subjects n (%) (Low Dose Cohort (N = 645)): 25 (3.9%); TEAE Sedation, subjects n (%) (Low Dose Cohort (N = 645)): 29 (4.5%); TEAE Somnolence, subjects n (%) (Low Dose Cohort (N = 645)): 76 (11.8%); TEAE Upper Respiratory Tract Infection, subjects n (%) (Low Dose Cohort (N = 645)): 52 (8.1%); TEAE severity Mild, subjects n (%) (Low Dose Cohort (N = 645)): 187 (29.0%); TEAE severity Moderate, subjects n (%) (Low Dose Cohort (N = 645)): 212 (32.9%); TEAE severity Severe / subjects with at least one severe TEAE, n (%) (Low Dose Cohort (N = 645)): 37 (5.7%); Withdrawn in Treatment Cycle 1: Adverse event, n (%) (Low Dose Cohort (n = 645)): 15 (2.3%); Subjects with a TEAE leading to study drug discontinuation [2]: (3.2%); Subjects with a Treatment cycle period AE leading to study withdrawal [2]: (3.7%); Subjects with at least one TEAE [2]: (67.5%); Subjects with at least one Treatment cycle period TEAE [2]: (53.6%); Subjects with at least one Treatment cycle period serious TEAE [2]: (1.3%); Subjects with at least one Treatment cycle period severe TEAE [2]: (2.6%); Subjects with at least one Treatment period AE [2]: (51.2%); Subjects with a TEAE leading to study drug discontinuation [3]: 1 (0.8%); Subjects with a Treatment cycle period AE leading to study withdrawal [3]: 3 (2.5%); Subjects with at least one TEAE [3]: 75 (63.6%); Subjects with at least one Treatment cycle period TEAE [3]: 58 (49.2%); Subjects with at least one Treatment cycle period serious TEAE [3]: 0%; Subjects with at least one Treatment cycle period severe TEAE [3]: 2 (1.7%)
